Measured values from paper PMC4564290 (Journal of Molecular and Cellular Cardiology, 2015).
“Also recorded” adds a separate entry of the source.

Tests used:
N588K hERG = N588K hERG (Homo sapiens, UniProt Q12809, N588K); parameters: expressed in transfected cells; host or cells: HEK cells; details: IC50 mutant/IC50 WT; mammalian expression; ref 15 of supplement; cited from earlier work
[1] = system: Kv1.5 V505 mutated to phenylalanine; parameters: method as in PMID 17872968; details: cited from earlier work
L-type calcium current = details: cited from earlier work
[2] = system: feline ventricular E-4031 sensitive delayed rectifier current; details: cited from earlier work
[3] = target: T1, wild-type (WT) hERG channels (Homo sapiens, UniProt Q12809); assay: Whole-cell patch clamp of WT IhERG in HEK293 cells at 37 °C; type: cell-based; details: for Fraction of unblocked IhERG: 6–8 min; for Whole-cell IhERG current density: ~6 min, drug-free control 315.3 ± 56.7
T1 construct: expressed in transfected cells
Procedure: (§1) HEK cells stably or transiently expressing hERG channel constructs were cultured as previously described [[34,37]]. The cells were plated in 40 mm petri dishes at least 48 h before transfection and incubated at 37 °C (5% CO2). Cells were transfected with Lipofectamine™ LTX (Invitrogen) following the manufacturer's instructions. The amount of transfected hERG construct DNA varied between 0.2 and 1.0 μg depending on the level of functional expression (assessed as current magnitudes) of each hERG channel construct. 0.5 to 1.0 μg of CD8 was co-transfected as a transfection-marker and successfully transfected cells were identified using Dynabeads® (Invitrogen). Cells were plated on small sterilized glass shards in 40 mm petri dishes and incubated at 37 °C (5% CO2) for at least 24 h before electrophysiological recording.
(§2) Glass shards containing plated cells were placed in a recording chamber mounted on an inverted microscope (Nikon Diaphot, USA). The cells were continuously superfused with a pre-warmed (37 °C) standard Tyrode's solution containing (in mM) the following: 140 NaCl, 4 KCl, 2.5 CaCl2, 1 MgCl2, 10 Glucose, 5 HEPES (titrated to pH 7.4 with NaOH). […] Patch-pipettes were dialysed with an intracellular solution containing (in mM) the following: 130 KCl, 1 MgCl2, 5 EGTA, 5 MgATP, 10 HEPES (titrated to pH 7.2 with KOH). All recordings were made using an Axopatch 200B amplifier (Axon Instruments, now Molecular Devices) and a CV203BU head-stage. Pipette resistance compensation was between 70 and 80%. […] Data digitization rates were 10–25 kHz during all voltage protocols and an appropriate bandwidth of 2–10 kHz was set on the amplifier.
For statistical analysis, data were subject to the Kolmogorov–Smirnov normality test. Statistical comparisons were made using paired or unpaired two-tailed t tests, Wilcoxon matched pairs signed rank test, Mann–Whitney U test and one way (repeated measures, where indicated) or two way ANOVA, as appropriate.
Block of IhERG was assessed by calculating the reduction in drug of the outward ‘tail’ current at − 40 mV (assessed as the difference in magnitude between peak tail current and instantaneous current activated by the brief (50 ms) depolarization from − 80 to − 40 mV [[24,34,37]]). […] The fractional inhibition at each of four concentrations was calculated using Eq. (1) (supplementary information) and the mean values were plotted as shown in Fig. 1D and then fitted with a standard Hill equation (Eq. (2), supplementary information). […] The low expression and kinetics of some mutant channels included in this study requires that IhERG be studied as an inward current in high (94 mM) [K^+]o [[34,35,37]].
We tested the effect of two concentrations (10 and 100 μM) of each analogue applied from the cell exterior (superfusate) and interior (the latter through the patch-pipette). […] As soon as the whole-cell configuration was achieved the drug molecules were free to diffuse inside the cytoplasm, precluding cells acting as their own control.

[4] = cited from earlier work
F656A hERG [5] = target: T2, F656A hERG (Homo sapiens, UniProt Q12809, F656A); assay: Patch clamp of F656A S6 helix mutant IhERG; type: cell-based; parameters: expressed in transfected cells; host or cells: HEK cells; details: internal (patch-pipette) application 100 µM, tails at -120 mV, n=8 vs control n=12
Procedure: as §1, §2
To investigate potential binding determinants in the pore region we studied alanine mutants of three residues (G648, Y652 and F656) located within the channel inner cavity on the S6 helix. […]

F656A hERG [6] = target: T2, F656A hERG; details: 300 μM (profound blocking concentration for WT IhERG), Xenopus oocyte expression; cited from earlier work
Y652A hERG = Y652A hERG (Homo sapiens, UniProt Q12809, Y652A); parameters: expressed in transfected cells; details: 300 μM (profound blocking concentration for WT IhERG), Xenopus oocyte expression; cited from earlier work
F656V hERG = details: cited from earlier work
[7] = external application (superfusate) 10 μM
[8] = external application (superfusate) 100 μM
[9] = internal application via patch-pipette 10 μM
[10] = internal application via patch-pipette 100 μM

T2 sequence (Q12809 whole entry F656A): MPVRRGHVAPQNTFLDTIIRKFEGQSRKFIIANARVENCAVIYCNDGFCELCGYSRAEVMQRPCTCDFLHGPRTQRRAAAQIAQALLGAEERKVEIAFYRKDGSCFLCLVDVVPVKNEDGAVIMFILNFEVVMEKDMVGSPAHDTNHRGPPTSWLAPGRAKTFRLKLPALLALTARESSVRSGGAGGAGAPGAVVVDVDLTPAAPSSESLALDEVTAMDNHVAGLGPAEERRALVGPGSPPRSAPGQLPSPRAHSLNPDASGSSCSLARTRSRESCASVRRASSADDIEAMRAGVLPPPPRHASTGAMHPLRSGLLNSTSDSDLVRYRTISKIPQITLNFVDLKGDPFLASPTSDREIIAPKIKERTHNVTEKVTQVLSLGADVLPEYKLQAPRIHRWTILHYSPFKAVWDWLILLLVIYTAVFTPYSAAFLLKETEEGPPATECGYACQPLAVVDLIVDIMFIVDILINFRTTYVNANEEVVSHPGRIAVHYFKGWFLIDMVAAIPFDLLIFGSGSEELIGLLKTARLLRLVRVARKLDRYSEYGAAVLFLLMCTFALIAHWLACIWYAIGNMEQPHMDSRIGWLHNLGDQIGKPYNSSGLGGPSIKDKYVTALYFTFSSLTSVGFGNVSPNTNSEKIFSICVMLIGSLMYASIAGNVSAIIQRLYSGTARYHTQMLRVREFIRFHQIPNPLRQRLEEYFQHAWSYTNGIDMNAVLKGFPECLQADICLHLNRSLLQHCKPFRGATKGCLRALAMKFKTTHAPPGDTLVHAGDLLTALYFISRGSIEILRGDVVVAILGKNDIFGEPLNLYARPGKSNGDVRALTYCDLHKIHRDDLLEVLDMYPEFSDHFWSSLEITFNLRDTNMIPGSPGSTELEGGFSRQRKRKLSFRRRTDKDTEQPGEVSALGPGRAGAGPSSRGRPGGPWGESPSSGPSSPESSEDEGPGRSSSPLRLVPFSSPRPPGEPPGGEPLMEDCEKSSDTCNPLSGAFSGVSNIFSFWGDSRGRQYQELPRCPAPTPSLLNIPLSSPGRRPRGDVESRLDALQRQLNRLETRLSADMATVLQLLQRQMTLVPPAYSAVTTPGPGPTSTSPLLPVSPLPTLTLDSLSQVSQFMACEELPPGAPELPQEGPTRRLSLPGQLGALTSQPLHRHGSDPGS
T1 sequence (Q12809 whole entry): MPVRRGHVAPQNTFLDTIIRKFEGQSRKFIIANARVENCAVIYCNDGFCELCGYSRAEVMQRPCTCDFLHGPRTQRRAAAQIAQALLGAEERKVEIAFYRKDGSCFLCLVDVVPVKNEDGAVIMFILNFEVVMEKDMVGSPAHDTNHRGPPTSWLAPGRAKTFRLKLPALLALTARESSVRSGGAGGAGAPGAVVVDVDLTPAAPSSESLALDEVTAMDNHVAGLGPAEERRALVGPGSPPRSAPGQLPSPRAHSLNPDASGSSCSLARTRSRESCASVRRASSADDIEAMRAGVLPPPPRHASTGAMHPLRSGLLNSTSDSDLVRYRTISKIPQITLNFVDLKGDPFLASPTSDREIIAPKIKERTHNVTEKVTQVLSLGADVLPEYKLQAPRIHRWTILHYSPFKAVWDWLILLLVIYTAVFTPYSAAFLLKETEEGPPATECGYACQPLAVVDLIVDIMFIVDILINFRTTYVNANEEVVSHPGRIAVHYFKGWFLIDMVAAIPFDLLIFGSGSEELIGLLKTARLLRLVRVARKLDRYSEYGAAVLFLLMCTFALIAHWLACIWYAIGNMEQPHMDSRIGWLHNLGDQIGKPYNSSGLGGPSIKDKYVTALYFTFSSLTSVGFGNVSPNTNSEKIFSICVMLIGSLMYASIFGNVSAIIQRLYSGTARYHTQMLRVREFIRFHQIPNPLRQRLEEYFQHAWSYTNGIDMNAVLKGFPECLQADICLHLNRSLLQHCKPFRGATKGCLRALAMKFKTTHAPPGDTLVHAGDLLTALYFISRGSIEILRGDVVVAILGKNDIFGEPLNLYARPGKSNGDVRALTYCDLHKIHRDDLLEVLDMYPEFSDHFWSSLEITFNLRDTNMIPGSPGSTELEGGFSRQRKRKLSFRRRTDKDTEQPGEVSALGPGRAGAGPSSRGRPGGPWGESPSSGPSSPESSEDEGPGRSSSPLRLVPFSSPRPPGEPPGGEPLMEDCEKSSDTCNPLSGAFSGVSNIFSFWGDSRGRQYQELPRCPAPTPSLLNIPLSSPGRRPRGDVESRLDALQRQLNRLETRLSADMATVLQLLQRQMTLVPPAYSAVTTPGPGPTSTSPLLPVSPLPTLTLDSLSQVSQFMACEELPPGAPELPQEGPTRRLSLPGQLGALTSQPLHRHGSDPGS
Chain of Y652A hERG (Q12809 whole entry Y652A): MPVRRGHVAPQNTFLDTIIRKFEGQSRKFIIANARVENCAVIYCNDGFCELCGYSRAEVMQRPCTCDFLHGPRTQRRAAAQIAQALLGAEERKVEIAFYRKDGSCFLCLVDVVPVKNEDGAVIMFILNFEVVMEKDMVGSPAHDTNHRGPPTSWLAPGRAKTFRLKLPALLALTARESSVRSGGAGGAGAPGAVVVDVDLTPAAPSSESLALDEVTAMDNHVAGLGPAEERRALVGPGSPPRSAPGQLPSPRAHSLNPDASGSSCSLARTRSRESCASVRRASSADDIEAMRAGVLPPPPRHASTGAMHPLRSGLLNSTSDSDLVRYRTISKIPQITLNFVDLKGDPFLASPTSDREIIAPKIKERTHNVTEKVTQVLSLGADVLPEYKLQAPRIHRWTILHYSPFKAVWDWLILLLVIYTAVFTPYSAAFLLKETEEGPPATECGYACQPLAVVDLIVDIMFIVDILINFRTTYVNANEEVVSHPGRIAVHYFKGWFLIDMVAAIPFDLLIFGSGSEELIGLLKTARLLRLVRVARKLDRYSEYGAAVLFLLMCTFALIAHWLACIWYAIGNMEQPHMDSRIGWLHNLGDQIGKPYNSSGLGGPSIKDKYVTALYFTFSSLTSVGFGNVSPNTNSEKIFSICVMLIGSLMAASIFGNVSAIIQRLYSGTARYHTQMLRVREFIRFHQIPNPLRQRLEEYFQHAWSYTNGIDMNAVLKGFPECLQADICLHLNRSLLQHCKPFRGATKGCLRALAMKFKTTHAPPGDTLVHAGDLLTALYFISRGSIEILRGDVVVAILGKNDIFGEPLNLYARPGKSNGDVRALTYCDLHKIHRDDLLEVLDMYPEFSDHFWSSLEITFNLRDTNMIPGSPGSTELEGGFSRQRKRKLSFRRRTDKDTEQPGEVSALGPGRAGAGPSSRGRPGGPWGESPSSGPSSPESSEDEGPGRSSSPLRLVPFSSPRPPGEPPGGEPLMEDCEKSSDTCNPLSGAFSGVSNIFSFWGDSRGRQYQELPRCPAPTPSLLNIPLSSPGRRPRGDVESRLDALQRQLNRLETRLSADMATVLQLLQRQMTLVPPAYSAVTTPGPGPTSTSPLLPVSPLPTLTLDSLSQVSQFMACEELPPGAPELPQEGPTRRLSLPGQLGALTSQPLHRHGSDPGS
Chain of N588K hERG (Q12809 whole entry N588K): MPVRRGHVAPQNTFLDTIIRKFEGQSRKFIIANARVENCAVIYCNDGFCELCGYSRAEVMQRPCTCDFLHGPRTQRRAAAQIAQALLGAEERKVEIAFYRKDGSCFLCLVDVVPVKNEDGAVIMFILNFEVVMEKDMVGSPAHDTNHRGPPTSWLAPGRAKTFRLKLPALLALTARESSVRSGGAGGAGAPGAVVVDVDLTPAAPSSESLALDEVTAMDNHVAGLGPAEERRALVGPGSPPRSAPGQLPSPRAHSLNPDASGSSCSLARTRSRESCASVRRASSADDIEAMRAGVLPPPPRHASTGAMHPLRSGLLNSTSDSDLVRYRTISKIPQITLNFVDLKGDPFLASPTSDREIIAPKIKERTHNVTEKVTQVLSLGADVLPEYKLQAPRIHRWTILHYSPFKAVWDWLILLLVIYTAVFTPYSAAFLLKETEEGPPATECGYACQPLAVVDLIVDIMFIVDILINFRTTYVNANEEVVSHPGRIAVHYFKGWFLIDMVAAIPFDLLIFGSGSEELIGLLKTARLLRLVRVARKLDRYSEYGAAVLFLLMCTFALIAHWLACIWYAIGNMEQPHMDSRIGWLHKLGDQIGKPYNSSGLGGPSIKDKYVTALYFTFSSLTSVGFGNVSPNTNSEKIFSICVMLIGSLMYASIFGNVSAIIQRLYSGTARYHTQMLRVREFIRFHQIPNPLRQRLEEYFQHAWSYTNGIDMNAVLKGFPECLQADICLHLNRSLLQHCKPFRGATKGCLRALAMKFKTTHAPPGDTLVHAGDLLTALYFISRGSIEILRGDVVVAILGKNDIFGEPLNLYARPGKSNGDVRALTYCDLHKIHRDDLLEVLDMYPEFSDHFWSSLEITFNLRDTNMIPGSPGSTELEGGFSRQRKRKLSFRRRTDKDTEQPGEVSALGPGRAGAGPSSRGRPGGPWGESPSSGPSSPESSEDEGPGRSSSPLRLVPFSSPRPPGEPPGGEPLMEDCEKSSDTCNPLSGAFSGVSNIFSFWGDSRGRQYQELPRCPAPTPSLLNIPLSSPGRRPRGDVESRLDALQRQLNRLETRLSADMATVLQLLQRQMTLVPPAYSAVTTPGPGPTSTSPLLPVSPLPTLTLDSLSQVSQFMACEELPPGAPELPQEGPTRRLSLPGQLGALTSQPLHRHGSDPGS

SMILES: CC(C)NC[C@@H](O)c1ccc(NS(C)(=O)=O)cc1 [D-Sotalol]
- Fold-change in IC50 N588K compared to WT IhERG (N588K hERG): 20 fold

SMILES: O=C(NCC1CCCCN1)c1cc(OCC(F)(F)F)ccc1OCC(F)(F)F (centres unmarked) [flecainide, Flecainide acetate]
- Increase in blocking potency on mutating V505 to phenylalanine [1]: 9 fold
- IC50 (L-type calcium current): ~20 µM
- IC50 [2]: 2.1 µM

SMILES: O=C(NCCN1CCOCC1)c1cc(OCC(F)(F)F)ccc1OCC(F)(F)F [NU-Flec]
- Fraction of unblocked IhERG [3, 7]: 75.8 ± 4.4%
- Fraction of unblocked IhERG [3, 8]: 50.2 ± 4.3%
- Whole-cell IhERG current density [3, 9]: 283.2 ± 63.4 pA/pF
- Whole-cell IhERG current density [3, 10]: 359.8 ± 56.1 pA/pF
- pKa [4]: 6.3

SMILES: C[N+]1(C)CCCCC1CNC(=O)c1cc(OCC(F)(F)F)ccc1OCC(F)(F)F (centres unmarked) [QX-Flec]
- Fraction of unblocked IhERG [3, 7]: 72.2 ± 4.6%
- Fraction of unblocked IhERG [3, 8]: 54.6 ± 3.5%
- Whole-cell IhERG current density [3, 9]: 55.3 ± 5.9 pA/pF
- Whole-cell IhERG current density [3, 10]: 9.3 ± 1.9 pA/pF
- Effect on density of inward F656A IhERG tails vs drug-free control (F656A hERG [5]): ineffective; also recorded: no significant difference; also recorded: little inhibition

SMILES: CC[C@H]1[C@@H]2C[C@H]3[C@@H]4N(C)c5ccccc5[C@]45C[C@@H]([C@H]2[C@H]5O)N3[C@@H]1O [ajmaline]
- Inhibitory action on F656A IhERG (F656A hERG [6]): ineffective
- Inhibitory action on Y652A IhERG (Y652A hERG): ineffective

SMILES: C=C[C@H]1C[N@@]2CC[C@H]1C[C@@H]2[C@@H](O)c1ccnc2ccc(OC)cc12 [Quinidine]
- Increase in IhERG IC50 with F656V (F656V hERG): ~ 27 fold
